In US12419893B2, “Methods and compositions for maximizing the prevention and/or reduction of various maladies and drug side-effects using uridine” (Tosk, Inc., priority 2018, dated 2025):

Key:
female CD-1 mice = experiment: Protection from 5-FU induced weight loss, study I (FIG. 2); assay type: in vivo; details: n=6
Procedure: The aim of this study was to explore whether uridine combined with a uridine phosphorylase inhibitor provided better protection from weight loss produced by 5-FU compared to uridine alone. Weight loss is one of the cardinal features of mucositis.
Four groups of female CD-1 mice were treated with daily ip injections of either PBS vehicle (Group 1), 80 mg/kg, 5-FU qdx5 (Groups 2), or 80 mg/kg, 5-FU qdx5 combined with 750 mg/kg uridine, bid, or 80 mg/kg, 5-FU qdx5 combined with 750 mg/kg uridine and 120 mg/kg bid TK-90, a representative 2,2′-anhydropyrimidine test article, sandwiched before and after the uridine doses. Controls include PBS alone at times mimicking the time for 5-FU and combined uridine and TK-90 treatments. There was n=6 animals in all groups.
Animals were sacrificed on Day 5 by cervical dislocation and properly disposed. Animal weights were recorded daily for 5 days and the % difference between Day 0 and Day 5 at termination calculated.
Results from the study are provided as percent weight gain/loss from pre-dose weight on Day 0 in FIG. 2. […] The statistical difference between Groups 2 and 3 was much less robust (p=0.036).

C57BL/6 female mice = experiment: Protection from decrease in plasma citrulline caused by 5-FU (FIG. 4); assay type: in vivo
Procedure: The chemotherapeutic challenge, 5-FU, was diminished plasma citrulline. […] Citrulline is a well-accepted surrogate marker for mucositis.
FIG. 4 depicts citrulline concentrations measured in plasma obtained at sacrifice on Day 3 from C57BL/6 female mice, approximately 20 g, treated on Day 0 with 200 mg/kg 5-FU, ip. On Days 0-2, the uridine and uridine+TK-90 group animals were dosed with […], bid. On Days 0-2, the uridine+TK-90 group animals were treated with 700 mg/kg TK-90, bid, in addition to the 5-FU on Day 0 and the uridine on Days 0-2. Animals in the PBS group were treated on Day 0-2 with PBS, bid. Data from all six mice in the PBS, uridine and uridine plus TK-90 groups were considered. Data from only five animals in the 5-FU group were considered because results from one animal was considered an outlier (unusually low response from the injected 5-FU). Plasma citrulline is a marker for mucosal health. […]
Thawed plasma samples from the study were analyzed for citrulline using a published LC/MS/MS-Isotope assay. (Jones et al., “Development and validation of a LC-MS/MS assay for quantitation of plasma citrulline for application to animal models of the acute radiation syndrome across multiple species,” Anal Bioanal Chem. (2014) 406 (19): 4663-75.).

[1] = man and animals (Deng et al. 2017); cited from earlier work
[2] = cited from earlier work

weight loss compared to the PBS vehicle control (percent weight change Day 5 vs Day 0) (female CD-1 mice; 80 mg/kg 5-FU qdx5 ip)	plasma citrulline compared to the PBS vehicle control (C57BL/6 female mice; 200 mg/kg 5-FU ip Day 0, plasma at Day 3, n=5)	SMILES	protection from 5-FU induced weight loss compared to the 5-FU group alone (female CD-1 mice; Day 5 vs Day 0, 5-FU 80 mg/kg qdx5, uridine 750 mg/kg bid, TK-90 120 mg/kg bid, ip)	protection from 5-FU lowered plasma citrulline (C57BL/6 female mice; 5-FU 200 mg/kg ip Day 0, uridine 250 mg bid Days 0-2, TK-90 700 mg/kg bid Days 0-2, plasma Day 3, n=6)	half-life of administered uridine [1]	toxicities of continuous infusions of high-dose uridine ([2]; continuous infusion)	toxicity of high-dose oral uridine in clinical studies ([2]; oral, patients)
robust weight loss	significant reduction in citrulline	O=c1[nH]cc(F)c(=O)[nH]1 [Compound 5-FU, 5-fluoro-2,4 (1H,3H)-Pyrimidinedione]					
		O=c1ccn([C@@H]2O[C@H](CO)[C@@H](O)[C@H]2O)c(=O)[nH]1 [uridine]	statistically significant but much less	provided protection	~3 min	high fever, cellulitis, and superior vena cava syndrome	severe patient diarrhea, phlebitis, and pyrogenic reactions
